Assay results from ChEMBL document CHEMBL5678818, “Discovery of potent SOS1 inhibitors that block RAS activation via disruption of the RAS-SOS1 interaction” (Proc Natl Acad Sci U S A, 2019).
Activity calls are given as the source filed them. No cut-off for these calls is given here.

Experiments:
[1] = system: Tyrosine-protein kinase ABL1 (Homo sapiens), P00519 [F317L]; assay: Inhibition of phosphorylated ABL1 F317L mutant (unknown origin) assessed as residual activity at 100 nM by KINOMEscan analysis relative to control
[2] = target: T1, Phosphatidylinositol 5-phosphate 4-kinase type-2 beta (Homo sapiens) (UniProt P78356); assay: Inhibition of PIP5K2B (unknown origin) assessed as residual activity at 100 nM by KINOMEscan analysis relative to control
T1 sequence (whole entry): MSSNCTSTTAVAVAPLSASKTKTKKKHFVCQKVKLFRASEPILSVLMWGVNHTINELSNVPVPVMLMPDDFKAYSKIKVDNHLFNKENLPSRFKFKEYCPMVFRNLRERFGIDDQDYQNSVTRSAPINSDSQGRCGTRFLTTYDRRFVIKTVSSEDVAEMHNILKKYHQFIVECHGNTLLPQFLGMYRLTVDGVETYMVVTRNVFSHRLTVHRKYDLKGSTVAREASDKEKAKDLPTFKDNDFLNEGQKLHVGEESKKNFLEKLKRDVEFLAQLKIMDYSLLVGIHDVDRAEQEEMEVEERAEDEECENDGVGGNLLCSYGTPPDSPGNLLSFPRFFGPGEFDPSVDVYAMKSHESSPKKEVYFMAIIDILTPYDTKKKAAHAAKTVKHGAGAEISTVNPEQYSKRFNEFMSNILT

[3] = target: Macrophage colony-stimulating factor 1 receptor (Homo sapiens) (UniProt P07333); assay: Inhibition of autoinhibited CSF1R (unknown origin) assessed as residual activity at 100 nM by KINOMEscan analysis relative to control
[4] = target: Serine/threonine-protein kinase Nek6 (Homo sapiens) (UniProt Q9HC98); assay: Inhibition of NEK6 (unknown origin) assessed as residual activity at 100 nM by KINOMEscan analysis relative to control
[5] = target: Interferon-induced, double-stranded RNA-activated protein kinase (Homo sapiens) (UniProt P19525); assay: Inhibition of PRKR (unknown origin) assessed as residual activity at 100 nM by KINOMEscan analysis relative to control
[6] = target: Cyclin-dependent kinase 13 (Homo sapiens) (UniProt Q14004); assay: Inhibition of CDC2L5 (unknown origin) assessed as residual activity at 100 nM by KINOMEscan analysis relative to control
[7] = target: MAP kinase-activated protein kinase 2 (Homo sapiens) (UniProt P49137); assay: Inhibition of MAPKAPK2 (unknown origin) assessed as residual activity at 100 nM by KINOMEscan analysis relative to control
[8] = target: Protein kinase C eta type (Homo sapiens) (UniProt P24723); assay: Inhibition of PRKCH (unknown origin) assessed as residual activity at 100 nM by KINOMEscan analysis relative to control
[9] = target: T2, Dual specificity tyrosine-phosphorylation-regulated kinase 2 (Homo sapiens) (UniProt Q92630); assay: Inhibition of DYRK2 (unknown origin) assessed as residual activity at 100 nM by KINOMEscan analysis relative to control
T2 sequence (whole entry): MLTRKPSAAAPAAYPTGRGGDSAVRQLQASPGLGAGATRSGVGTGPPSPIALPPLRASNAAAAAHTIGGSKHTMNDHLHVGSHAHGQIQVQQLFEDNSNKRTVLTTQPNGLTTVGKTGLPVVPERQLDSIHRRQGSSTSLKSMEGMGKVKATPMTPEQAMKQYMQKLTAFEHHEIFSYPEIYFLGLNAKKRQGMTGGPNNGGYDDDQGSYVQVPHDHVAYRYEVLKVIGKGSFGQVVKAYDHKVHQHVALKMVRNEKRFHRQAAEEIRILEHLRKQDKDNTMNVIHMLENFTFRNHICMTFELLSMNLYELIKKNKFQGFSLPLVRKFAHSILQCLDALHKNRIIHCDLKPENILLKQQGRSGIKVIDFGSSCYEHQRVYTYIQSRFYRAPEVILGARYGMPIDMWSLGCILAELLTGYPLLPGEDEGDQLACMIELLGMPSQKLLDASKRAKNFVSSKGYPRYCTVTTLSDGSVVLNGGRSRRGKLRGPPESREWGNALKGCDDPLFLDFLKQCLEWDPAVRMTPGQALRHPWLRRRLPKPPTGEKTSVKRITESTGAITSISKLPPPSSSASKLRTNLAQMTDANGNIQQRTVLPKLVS

[10] = target: GTPase KRas (Homo sapiens) (UniProt P01116); assay: Binding affinity to N-terminal His10-tagged wild-type human KRAS (1 to 169 residues) expressed in Escherichia coli assessed as binding at 1:1 stoichiometry at 100 uM incubated for 1 hr by native MS analysis
[11] = target: Serine/threonine-protein kinase Nek7 (Homo sapiens) (UniProt Q8TDX7); assay: Inhibition of NEK7 (unknown origin) assessed as residual activity at 100 nM by KINOMEscan analysis relative to control
[12] = target: Homeodomain-interacting protein kinase 2 (Homo sapiens) (UniProt Q9H2X6); assay: Inhibition of HIPK2 (unknown origin) assessed as residual activity at 100 nM by KINOMEscan analysis relative to control
[13] = target: Myosin-IIIa (Homo sapiens) (UniProt Q8NEV4); assay: Inhibition of MYO3A (unknown origin) assessed as residual activity at 100 nM by KINOMEscan analysis relative to control
[14] = target: Cyclin-dependent kinase 8 (Homo sapiens) (UniProt P49336); assay: Inhibition of CDK8 (unknown origin) assessed as residual activity at 100 nM by KINOMEscan analysis relative to control
[15] = system: GTPase KRas (Homo sapiens), P01116 [G12C]; assay: Stabilization of N-terminal GST-tagged recombinant human KRAS G12C mutant (1 to 169 residues) expressed in Escherichia coli assessed as change in melting temperature at 100 uM with heating from 25 to 85 degreeC by thermal shift assay

COc1cc2ncnc(N[C@H](C)c3cccc4ccccc34)c2cc1OC
Activity [1]: 86%
Activity [2]: 91%
Activity [3]: 96%
Activity [4]: 79%
Activity [5]: 100%
Activity [6]: 92%
Activity [7]: 83%
Activity [8]: 90%
Activity [9]: 80%
Activity [10]: inactive
Activity [11]: 100%
Activity [12]: 93%
Activity [13]: 100%
Activity [14]: 91%

CNCc1ccccc1-c1csc([C@@H](C)Nc2nc(C)nc3cc(OC)c(OC)cc23)c1 [BAY-293]
ΔTm [15]: 0.21 °C
